Reference: ChEMBL document CHEMBL4665873, “Exploring the physicochemical and antiproliferative properties of biaryl-linked [13]-macrodilactones” (2020)

Assay: Antiproliferative activity against mouse ASZ cells assessed as reduction in cell viability after 72 hrs by MTS/PMS assay
Format: functional

| SMILES | GI50 [µM] |
| --- | --- |
| CN(C)c1cccc(-c2ccc(C3C/C=C/CCC(=O)OCCCOC3=O)cc2)c1 (stereo not drawn) | ≥ 75 |
| O=C1CC/C=C/CC(c2ccc(-c3cccc(O)c3)cc2)C(=O)OCCCO1 (stereo not drawn) | 12.1 |
| O=C1CC/C=C/CC(c2ccc(-c3ccncc3)cc2)C(=O)OCCCO1 (stereo not drawn) | ≥ 75 |
| O=C1CC/C=C/CC(c2ccc(-c3cnn(Cc4ccccc4)c3)cc2)C(=O)OCCCO1 (stereo not drawn) | ≥ 100 |
| O=C1CC/C=C/CC(c2ccc(-c3ccccc3)cc2)C(=O)OCCCO1 (stereo not drawn) | ≥ 100 |
| COc1cc(-c2ccc(C3C/C=C/CCC(=O)OCCCOC3=O)cc2)c(OC)nn1 (stereo not drawn) | 19.7 |
| O=C1CC/C=C/CC(c2ccc(-c3cccnc3)cc2)C(=O)OCCCO1 (stereo not drawn) | 40.9 |
| Cc1noc(C)c1-c1ccc(C2C/C=C/CCC(=O)OCCCOC2=O)cc1 (stereo not drawn) | ≥ 75 |
